Read-outs that look alike come from different tables or passages of the source.
How the values were obtained:
CDK6/Cyclin D1 = CDK6/Cyclin D1 (Homo sapiens, UniProt Q00534); assay: NanoBRET live-cell target engagement, NanoLuc-CDK6/Cyclin D1 in HEK-293; format: binding; conditions: for inhibition at 10 µM: read-out: CDK6/D1 Inhibition at 10µM (%); for IC50: read-out: CDK6/D1 IC50
CDK12/Cyclin K = CDK12/Cyclin K (Homo sapiens, UniProt Q9NYV4); assay: NanoBRET live-cell target engagement, CDK12-NanoLuc/Cyclin K in HEK-293; format: binding; conditions: 10µM, read-out: CDK12/K Inhibition at 10µM (%)
Chain of CDK12/Cyclin K (Q9NYV4 1-1481 isoform Q9NYV4-2): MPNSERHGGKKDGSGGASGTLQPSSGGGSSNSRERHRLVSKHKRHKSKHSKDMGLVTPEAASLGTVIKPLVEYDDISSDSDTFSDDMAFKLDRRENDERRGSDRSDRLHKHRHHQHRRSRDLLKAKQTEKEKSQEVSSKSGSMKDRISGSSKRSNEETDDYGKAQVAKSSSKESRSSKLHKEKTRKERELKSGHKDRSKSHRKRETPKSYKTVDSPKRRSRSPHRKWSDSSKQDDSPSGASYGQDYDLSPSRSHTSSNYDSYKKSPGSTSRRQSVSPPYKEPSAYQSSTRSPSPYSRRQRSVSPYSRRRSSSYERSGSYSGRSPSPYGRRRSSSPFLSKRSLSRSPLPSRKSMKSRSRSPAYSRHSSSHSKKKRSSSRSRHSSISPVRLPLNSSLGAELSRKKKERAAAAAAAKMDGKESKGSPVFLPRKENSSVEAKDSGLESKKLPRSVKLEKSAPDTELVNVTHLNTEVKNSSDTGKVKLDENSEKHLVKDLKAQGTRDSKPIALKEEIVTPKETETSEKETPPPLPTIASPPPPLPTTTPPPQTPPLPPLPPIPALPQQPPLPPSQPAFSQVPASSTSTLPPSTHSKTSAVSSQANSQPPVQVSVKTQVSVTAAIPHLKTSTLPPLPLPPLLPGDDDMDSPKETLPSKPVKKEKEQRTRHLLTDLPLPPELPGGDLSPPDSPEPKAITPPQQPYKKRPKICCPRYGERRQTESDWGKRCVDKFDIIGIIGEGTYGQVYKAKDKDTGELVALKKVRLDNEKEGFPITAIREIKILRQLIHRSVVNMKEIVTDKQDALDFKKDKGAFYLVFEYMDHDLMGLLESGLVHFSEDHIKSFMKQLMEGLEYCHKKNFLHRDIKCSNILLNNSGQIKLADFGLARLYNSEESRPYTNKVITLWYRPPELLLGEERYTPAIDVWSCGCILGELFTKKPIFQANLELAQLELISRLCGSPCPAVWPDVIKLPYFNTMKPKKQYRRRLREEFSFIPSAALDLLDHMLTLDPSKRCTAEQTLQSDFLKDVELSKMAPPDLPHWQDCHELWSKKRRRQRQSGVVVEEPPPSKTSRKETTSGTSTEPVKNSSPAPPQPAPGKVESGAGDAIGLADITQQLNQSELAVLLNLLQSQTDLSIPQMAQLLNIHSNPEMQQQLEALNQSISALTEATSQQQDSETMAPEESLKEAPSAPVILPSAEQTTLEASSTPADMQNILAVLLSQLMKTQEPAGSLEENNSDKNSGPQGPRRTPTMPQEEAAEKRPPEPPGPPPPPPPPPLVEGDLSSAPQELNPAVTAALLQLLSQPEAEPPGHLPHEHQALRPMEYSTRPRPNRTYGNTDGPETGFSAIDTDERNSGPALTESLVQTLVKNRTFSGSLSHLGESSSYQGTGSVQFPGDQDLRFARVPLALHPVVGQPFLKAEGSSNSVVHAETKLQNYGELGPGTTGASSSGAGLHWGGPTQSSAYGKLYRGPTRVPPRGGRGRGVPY
Chain of CDK12/Cyclin K (O75909 whole entry partner): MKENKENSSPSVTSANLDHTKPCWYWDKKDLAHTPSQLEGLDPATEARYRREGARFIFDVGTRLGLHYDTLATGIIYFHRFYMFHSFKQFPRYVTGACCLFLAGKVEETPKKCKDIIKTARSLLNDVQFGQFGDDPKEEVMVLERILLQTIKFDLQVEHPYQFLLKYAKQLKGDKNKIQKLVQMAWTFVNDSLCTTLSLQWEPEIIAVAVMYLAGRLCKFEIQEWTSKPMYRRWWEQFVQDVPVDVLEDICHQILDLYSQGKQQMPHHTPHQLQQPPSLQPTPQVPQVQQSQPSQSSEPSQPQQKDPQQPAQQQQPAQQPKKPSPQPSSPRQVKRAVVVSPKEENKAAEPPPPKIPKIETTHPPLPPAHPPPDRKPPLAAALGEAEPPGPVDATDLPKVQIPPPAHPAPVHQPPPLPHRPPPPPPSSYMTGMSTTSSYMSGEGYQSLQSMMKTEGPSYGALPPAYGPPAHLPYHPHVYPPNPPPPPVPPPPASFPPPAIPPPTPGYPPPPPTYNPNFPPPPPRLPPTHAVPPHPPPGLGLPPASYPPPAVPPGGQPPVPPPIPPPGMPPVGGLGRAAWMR

CDK2/Cyclin E1 = CDK2/Cyclin E1 (Homo sapiens, UniProt P24941); assay: NanoBRET live-cell target engagement, CDK2-NanoLuc/Cyclin E1 in HEK-293; format: binding; conditions: 10µM, read-out: CDK2/E1 Inhibition at 10µM (%)
CDK8/Cyclin C = CDK8/Cyclin C (Homo sapiens, UniProt P49336); assay: NanoBRET live-cell target engagement, NanoLuc-CDK8/Cyclin C in HEK-293; format: binding; conditions: 10µM, read-out: CDK8/C Inhibition at 10µM (%)
Chain of CDK8/Cyclin C (P49336 whole entry): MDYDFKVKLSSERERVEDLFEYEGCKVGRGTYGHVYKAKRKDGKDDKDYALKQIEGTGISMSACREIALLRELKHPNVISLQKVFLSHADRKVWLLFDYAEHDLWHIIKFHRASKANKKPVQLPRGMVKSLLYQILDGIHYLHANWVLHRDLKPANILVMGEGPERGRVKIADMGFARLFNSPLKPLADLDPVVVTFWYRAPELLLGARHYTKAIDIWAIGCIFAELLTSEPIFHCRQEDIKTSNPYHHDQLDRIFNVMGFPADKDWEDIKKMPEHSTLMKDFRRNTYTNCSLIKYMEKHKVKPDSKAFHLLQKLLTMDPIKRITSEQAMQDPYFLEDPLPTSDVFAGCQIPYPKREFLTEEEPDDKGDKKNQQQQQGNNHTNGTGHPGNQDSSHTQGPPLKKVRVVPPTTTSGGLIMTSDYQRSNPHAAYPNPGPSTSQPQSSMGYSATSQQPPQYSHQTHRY
Chain of CDK8/Cyclin C (P24863 whole entry partner): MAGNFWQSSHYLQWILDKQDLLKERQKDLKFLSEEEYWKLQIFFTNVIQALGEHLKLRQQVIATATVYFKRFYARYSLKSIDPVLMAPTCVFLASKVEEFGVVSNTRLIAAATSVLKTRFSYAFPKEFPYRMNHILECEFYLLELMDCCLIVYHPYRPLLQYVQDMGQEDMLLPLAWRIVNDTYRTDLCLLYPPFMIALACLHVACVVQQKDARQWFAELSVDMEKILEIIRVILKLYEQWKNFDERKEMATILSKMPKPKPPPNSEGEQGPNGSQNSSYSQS

CDK20/Cyclin H = CDK20/Cyclin H (Homo sapiens, UniProt Q8IZL9); assay: NanoBRET live-cell target engagement, NanoLuc-CDK20/Cyclin H in HEK-293; format: binding; conditions: 10µM, read-out: CDK20/H Inhibition at 10µM (%)
CDK10/Cyclin L2 = CDK10/Cyclin L2 (Homo sapiens, UniProt Q15131); assay: NanoBRET live-cell target engagement, CDK10-NanoLuc/Cyclin L2 in HEK-293; conditions: read-out: CDK10/L2 Inhibition at 10µM (%), 10µM
CDK5/CDK5R1 = CDK5/CDK5R1 (Homo sapiens, UniProt Q00535); assay: NanoBRET live-cell target engagement, CDK5-NanoLuc/CDK5R1 in HEK-293; format: binding; conditions: for inhibition at 10 µM: read-out: CDK5/CDK5R1 Inhibition at 10µM (%); for IC50: read-out: CDK5/CDK5R1 IC50
CDK9/Cyclin K = CDK9/Cyclin K (Homo sapiens, UniProt P50750); assay: NanoBRET live-cell target engagement, NanoLuc-CDK9/Cyclin K in HEK-293; format: binding; conditions: 10µM, read-out: CDK9/K Inhibition at 10µM (%)
CDK16/Cyclin Y = CDK16/Cyclin Y (Homo sapiens, UniProt Q00536); assay: NanoBRET live-cell target engagement, CDK16-NanoLuc/Cyclin Y in HEK-293; format: binding; conditions: 10µM, read-out: CDK16/Y Inhibition at 10µM (%)
CDK19/Cyclin C = CDK19/Cyclin C (Homo sapiens, UniProt Q9BWU1); assay: NanoBRET live-cell target engagement, NanoLuc-CDK19/Cyclin C in HEK-293; conditions: read-out: CDK19/C Inhibition at 10µM (%), 10µM
CDK11B/Cyclin L2 = CDK11B/Cyclin L2 (Homo sapiens, UniProt P21127); assay: NanoBRET live-cell target engagement, CDK11B-NanoLuc/Cyclin L2 in HEK-293; format: binding; conditions: 10µM, read-out: CDK11b/L2 Inhibition at 10µM (%)
CDK15/Cyclin Y = CDK15/Cyclin Y (Homo sapiens, UniProt Q96Q40); assay: NanoBRET live-cell target engagement, NanoLuc-CDK15/Cyclin Y in HEK-293; format: binding; conditions: 10µM, read-out: CDK15/Y Inhibition at 10µM (%)
CDK18/Cyclin Y = CDK18/Cyclin Y (Homo sapiens, UniProt Q07002); assay: NanoBRET live-cell target engagement, CDK18-NanoLuc/Cyclin Y in HEK-293; format: binding; conditions: 10µM, read-out: CDK18/Y Inhibition at 10µM (%)
Chain of CDK18/Cyclin Y (Q07002 whole entry): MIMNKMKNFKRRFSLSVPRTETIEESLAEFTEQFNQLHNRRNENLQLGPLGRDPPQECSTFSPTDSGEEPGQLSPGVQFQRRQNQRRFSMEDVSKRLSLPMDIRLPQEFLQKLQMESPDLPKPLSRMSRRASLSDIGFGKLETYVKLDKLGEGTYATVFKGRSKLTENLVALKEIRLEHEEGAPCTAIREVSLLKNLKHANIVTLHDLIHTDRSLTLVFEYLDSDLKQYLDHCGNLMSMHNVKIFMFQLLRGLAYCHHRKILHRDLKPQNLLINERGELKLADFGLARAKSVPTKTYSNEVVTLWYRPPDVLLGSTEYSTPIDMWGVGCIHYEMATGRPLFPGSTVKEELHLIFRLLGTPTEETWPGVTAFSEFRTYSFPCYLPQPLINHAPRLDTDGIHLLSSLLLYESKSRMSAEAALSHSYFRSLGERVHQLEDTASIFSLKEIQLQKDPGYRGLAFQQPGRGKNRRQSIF
Chain of CDK18/Cyclin Y (Q8ND76 whole entry partner): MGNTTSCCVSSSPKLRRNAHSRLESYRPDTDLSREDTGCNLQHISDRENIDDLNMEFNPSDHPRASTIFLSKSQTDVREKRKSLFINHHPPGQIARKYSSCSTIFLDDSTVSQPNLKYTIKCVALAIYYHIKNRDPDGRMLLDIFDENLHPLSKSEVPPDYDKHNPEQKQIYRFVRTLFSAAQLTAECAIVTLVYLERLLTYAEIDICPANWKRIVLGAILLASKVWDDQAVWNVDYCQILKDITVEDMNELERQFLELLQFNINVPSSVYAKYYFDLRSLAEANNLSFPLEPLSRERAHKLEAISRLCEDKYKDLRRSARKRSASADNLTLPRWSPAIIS

CDK14/Cyclin Y = CDK14/Cyclin Y (Homo sapiens, UniProt O94921); assay: NanoBRET live-cell target engagement, CDK14-NanoLuc/Cyclin Y in HEK-293; format: binding; conditions: 10µM, read-out: CDK14/Y Inhibition at 10µM (%)
CDK17/Cyclin Y = CDK17/Cyclin Y (Homo sapiens, UniProt Q00537); assay: NanoBRET live-cell target engagement, CDK17-NanoLuc/Cyclin Y in HEK-293; format: binding; conditions: 10µM, read-out: CDK17/Y Inhibition at 10µM (%)
CDK13/Cyclin K = CDK13/Cyclin K (Homo sapiens, UniProt Q14004); assay: NanoBRET live-cell target engagement, CDK13-NanoLuc/Cyclin K in HEK-293; format: binding; conditions: 10µM, read-out: CDK13/K Inhibition at 10µM (%)
CDK1/Cyclin E1 = CDK1/Cyclin E1 (Homo sapiens, UniProt P06493); assay: NanoBRET live-cell target engagement, CDK1-NanoLuc/Cyclin E1 in HEK-293; format: binding; conditions: for inhibition at 10 µM: read-out: CDK1/E1 Inhibition at 10µM (%); for IC50: read-out: CDK1/E1 IC50
Chain of CDK1/Cyclin E1 (P06493 whole entry): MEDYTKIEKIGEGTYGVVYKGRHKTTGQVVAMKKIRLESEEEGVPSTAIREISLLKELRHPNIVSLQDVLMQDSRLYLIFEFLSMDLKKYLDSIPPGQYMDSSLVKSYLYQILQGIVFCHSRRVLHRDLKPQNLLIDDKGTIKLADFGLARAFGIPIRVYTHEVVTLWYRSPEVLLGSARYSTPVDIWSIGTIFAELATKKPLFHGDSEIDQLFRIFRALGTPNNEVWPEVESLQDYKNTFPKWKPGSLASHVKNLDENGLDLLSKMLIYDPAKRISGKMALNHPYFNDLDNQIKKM
Chain of CDK1/Cyclin E1 (P24864 whole entry partner): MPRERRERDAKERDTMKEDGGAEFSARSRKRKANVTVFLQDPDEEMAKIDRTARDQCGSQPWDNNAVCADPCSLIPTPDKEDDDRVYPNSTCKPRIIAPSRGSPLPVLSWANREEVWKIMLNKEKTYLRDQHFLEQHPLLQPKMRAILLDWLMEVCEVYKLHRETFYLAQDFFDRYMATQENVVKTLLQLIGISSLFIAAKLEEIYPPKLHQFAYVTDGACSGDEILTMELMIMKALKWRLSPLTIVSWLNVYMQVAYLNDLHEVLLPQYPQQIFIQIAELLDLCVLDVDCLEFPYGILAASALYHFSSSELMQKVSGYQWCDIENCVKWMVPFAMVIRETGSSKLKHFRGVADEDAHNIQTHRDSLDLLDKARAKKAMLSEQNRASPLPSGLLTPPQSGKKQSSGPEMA

CDK11A/Cyclin L2 = biological target: T1, CDK11A/Cyclin L2 (Homo sapiens, UniProt Q9UQ88); assay: NanoBRET live-cell target engagement, CDK11A-NanoLuc/Cyclin L2 in HEK-293; format: binding; conditions: 10µM, read-out: CDK11a/L2 Inhibition at 10µM (%)
T1 sequence (Q9UQ88 1-783): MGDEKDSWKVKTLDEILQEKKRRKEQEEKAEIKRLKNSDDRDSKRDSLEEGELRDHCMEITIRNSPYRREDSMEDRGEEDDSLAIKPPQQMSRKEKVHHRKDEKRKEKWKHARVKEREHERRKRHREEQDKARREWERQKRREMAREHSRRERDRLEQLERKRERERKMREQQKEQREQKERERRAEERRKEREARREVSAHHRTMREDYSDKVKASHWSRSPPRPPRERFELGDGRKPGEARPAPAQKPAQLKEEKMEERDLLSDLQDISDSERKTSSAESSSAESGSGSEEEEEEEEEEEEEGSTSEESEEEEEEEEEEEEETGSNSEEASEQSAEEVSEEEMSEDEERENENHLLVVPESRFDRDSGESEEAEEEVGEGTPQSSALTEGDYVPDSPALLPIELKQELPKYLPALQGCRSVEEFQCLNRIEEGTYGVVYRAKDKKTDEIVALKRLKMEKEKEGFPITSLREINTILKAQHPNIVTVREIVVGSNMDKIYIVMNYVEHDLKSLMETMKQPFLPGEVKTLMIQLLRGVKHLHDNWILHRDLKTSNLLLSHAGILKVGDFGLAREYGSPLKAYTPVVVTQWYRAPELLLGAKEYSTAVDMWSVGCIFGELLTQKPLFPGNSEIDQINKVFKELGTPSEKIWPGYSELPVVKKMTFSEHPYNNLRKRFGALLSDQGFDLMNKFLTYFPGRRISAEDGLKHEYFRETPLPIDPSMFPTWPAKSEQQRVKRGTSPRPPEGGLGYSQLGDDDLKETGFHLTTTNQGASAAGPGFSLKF

CDK4/Cyclin D1 = CDK4/Cyclin D1 (Homo sapiens, UniProt P11802); assay: NanoBRET live-cell target engagement, NanoLuc-CDK4/Cyclin D1 in HEK-293; format: binding; conditions: for inhibition at 10 µM: read-out: CDK4/D1 Inhibition at 10µM (%); for IC50: read-out: CDK4/D1 IC50
Chain of CDK4/Cyclin D1 (P11802 whole entry): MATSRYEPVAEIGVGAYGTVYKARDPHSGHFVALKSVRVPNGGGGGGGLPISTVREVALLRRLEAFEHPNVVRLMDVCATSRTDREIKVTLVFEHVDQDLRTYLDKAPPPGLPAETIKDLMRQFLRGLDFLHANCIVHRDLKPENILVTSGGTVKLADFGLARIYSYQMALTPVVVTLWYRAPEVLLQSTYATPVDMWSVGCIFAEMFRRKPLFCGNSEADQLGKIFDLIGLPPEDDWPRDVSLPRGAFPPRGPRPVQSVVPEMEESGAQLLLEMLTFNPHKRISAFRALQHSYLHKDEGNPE
Chain of CDK4/Cyclin D1 (P24385 whole entry partner): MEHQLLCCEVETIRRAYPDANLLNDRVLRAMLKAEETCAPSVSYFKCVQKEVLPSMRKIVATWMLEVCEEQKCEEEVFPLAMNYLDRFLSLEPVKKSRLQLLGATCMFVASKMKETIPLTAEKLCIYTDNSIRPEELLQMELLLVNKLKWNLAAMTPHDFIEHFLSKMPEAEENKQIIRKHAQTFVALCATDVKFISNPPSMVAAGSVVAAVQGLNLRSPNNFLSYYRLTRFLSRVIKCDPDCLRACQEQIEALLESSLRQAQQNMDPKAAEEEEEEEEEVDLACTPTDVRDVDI

- inhibition at 10 µM (CDK6/Cyclin D1; average of experiments): 88.3%
- inhibition at 10 µM (CDK6/Cyclin D1; independent experiment 1): 84.9%
- inhibition at 10 µM (CDK6/Cyclin D1; independent experiment 2): 91.6%
- IC50 (CDK6/Cyclin D1; average (± SEM where n=3)): 430 nM
- IC50 (CDK6/Cyclin D1; independent experiment 1): 374 nM
- IC50 (CDK6/Cyclin D1; independent experiment 2): 480 nM
- inhibition at 10 µM (CDK12/Cyclin K; average of experiments): 31.4%
- inhibition at 10 µM (CDK12/Cyclin K; independent experiment 1): 33%
- inhibition at 10 µM (CDK12/Cyclin K; independent experiment 2): 29.9%
- inhibition at 10 µM (CDK2/Cyclin E1; average of experiments): 96%
- inhibition at 10 µM (CDK2/Cyclin E1; independent experiment 1): 95.7%
- inhibition at 10 µM (CDK2/Cyclin E1; independent experiment 2): 96.3%
- inhibition at 10 µM (CDK8/Cyclin C; average of experiments): 57.2%
- inhibition at 10 µM (CDK8/Cyclin C; independent experiment 1): 65.2%
- inhibition at 10 µM (CDK8/Cyclin C; independent experiment 2): 49.1%
- inhibition at 10 µM (CDK20/Cyclin H; independent experiment 1): 5.8%
- inhibition at 10 µM (CDK20/Cyclin H; independent experiment 2): 16.7%
- inhibition at 10 µM (CDK10/Cyclin L2; average of experiments): 30%
- inhibition at 10 µM (CDK10/Cyclin L2; independent experiment 1): 32.9%
- inhibition at 10 µM (CDK10/Cyclin L2; independent experiment 2): 27.2%
- inhibition at 10 µM (CDK5/CDK5R1; average of experiments): 92%
- inhibition at 10 µM (CDK5/CDK5R1; independent experiment 1): 89.9%
- inhibition at 10 µM (CDK5/CDK5R1; independent experiment 2): 94.2%
- IC50 (CDK5/CDK5R1; average (± SEM where n=3)): 360 nM
- IC50 (CDK5/CDK5R1; independent experiment 1): 422 nM
- IC50 (CDK5/CDK5R1; independent experiment 2): 300 nM
- inhibition at 10 µM (CDK9/Cyclin K; average of experiments): 86%
- inhibition at 10 µM (CDK9/Cyclin K; independent experiment 1): 87.8%
- inhibition at 10 µM (CDK9/Cyclin K; independent experiment 2): 84.1%
- inhibition at 10 µM (CDK16/Cyclin Y; independent experiment 1): 84.5%
- inhibition at 10 µM (CDK16/Cyclin Y; independent experiment 2): 87%
- inhibition at 10 µM (CDK19/Cyclin C; average of experiments): 52.6%
- inhibition at 10 µM (CDK19/Cyclin C; independent experiment 1): 63.4%
- inhibition at 10 µM (CDK19/Cyclin C; independent experiment 2): 41.9%
- inhibition at 10 µM (CDK11B/Cyclin L2; average of experiments): 56.3%
- inhibition at 10 µM (CDK11B/Cyclin L2; independent experiment 1): 57.8%
- inhibition at 10 µM (CDK11B/Cyclin L2; independent experiment 2): 54.7%
- inhibition at 10 µM (CDK15/Cyclin Y; average of experiments): 72.5%
- inhibition at 10 µM (CDK15/Cyclin Y; independent experiment 1): 72.6%
- inhibition at 10 µM (CDK15/Cyclin Y; independent experiment 2): 72.5%
- inhibition at 10 µM (CDK18/Cyclin Y; average of experiments): 91.7%
- inhibition at 10 µM (CDK18/Cyclin Y; independent experiment 1): 86.8%
- inhibition at 10 µM (CDK18/Cyclin Y; independent experiment 2): 96.6%
- inhibition at 10 µM (CDK14/Cyclin Y; average of experiments): 81.4%
- inhibition at 10 µM (CDK14/Cyclin Y; independent experiment 1): 81%
- inhibition at 10 µM (CDK14/Cyclin Y; independent experiment 2): 81.8%
- inhibition at 10 µM (CDK17/Cyclin Y; average of experiments): 86.9%
- inhibition at 10 µM (CDK17/Cyclin Y; independent experiment 1): 86.4%
- inhibition at 10 µM (CDK17/Cyclin Y; independent experiment 2): 87.4%
- inhibition at 10 µM (CDK13/Cyclin K; average of experiments): 17.1%
- inhibition at 10 µM (CDK13/Cyclin K; independent experiment 1): 23.7%
- inhibition at 10 µM (CDK13/Cyclin K; independent experiment 2): 10.4%
- inhibition at 10 µM (CDK1/Cyclin E1; average of experiments): 71.4%
- inhibition at 10 µM (CDK1/Cyclin E1; independent experiment 1): 72%
- inhibition at 10 µM (CDK1/Cyclin E1; independent experiment 2): 70.8%
- IC50 (CDK1/Cyclin E1; average (± SEM where n=3)): 820 nM
- IC50 (CDK1/Cyclin E1; independent experiment 1): 800 nM
- IC50 (CDK1/Cyclin E1; independent experiment 2): 850 nM
- inhibition at 10 µM (CDK11A/Cyclin L2; average of experiments): 50.1%
- inhibition at 10 µM (CDK11A/Cyclin L2; independent experiment 1): 50.7%
- inhibition at 10 µM (CDK11A/Cyclin L2; independent experiment 2): 49.4%
- inhibition at 10 µM (CDK4/Cyclin D1; average of experiments): 83.1%
- inhibition at 10 µM (CDK4/Cyclin D1; independent experiment 1): 82.5%
- inhibition at 10 µM (CDK4/Cyclin D1; independent experiment 2): 83.8%
- IC50 (CDK4/Cyclin D1; average (± SEM where n=3)): 320 nM
- IC50 (CDK4/Cyclin D1; independent experiment 1): 122 nM
- IC50 (CDK4/Cyclin D1; independent experiment 2): 510 nM
Structure (SMILES): CC(C)CC(=O)Nc1[nH]nc2c1CN(C(=O)C1CCN(C)CC1)C2(C)C [PHA-793887]

From PMC7265341, “Quantifying CDK inhibitor selectivity in live cells” (Nature Communications, 2020)
